Laboratory results taken from PubChem BioAssay (NCI).
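Growth conditions: 96-well plates. Treatment: test compound, 48 hours, 5 concentrations. Analysis: linear interpolation between bracketing concentrations; unreached endpoints set to highest concentration. GI50 is the concentration that inhibits growth by half. TGI marks complete inhibition of growth.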

Tests used:
Test in all cases: NCI-60 cell line screen, 48 h
786-0 renal = tested on: 786-0 renal
A498 renal = tested on: A498 renal
A549 NSCLC = tested on: A549 NSCLC
ACHN renal = tested on: ACHN renal
BT-549 breast = tested on: BT-549 breast
CAKI-1 renal = tested on: CAKI-1 renal
CCRF-CEM leukemia = tested on: CCRF-CEM leukemia
COLO 205 colon = tested on: COLO 205 colon
DU-145 prostate = tested on: DU-145 prostate
EKVX NSCLC = tested on: EKVX NSCLC
HCC-2998 colon = tested on: HCC-2998 colon
HCT-116 colon = tested on: HCT-116 colon
HCT-15 colon = tested on: HCT-15 colon
HL-60(TB) leukemia = tested on: HL-60(TB) leukemia
HOP-62 NSCLC = tested on: HOP-62 NSCLC
HOP-92 NSCLC = tested on: HOP-92 NSCLC
HS 578T breast = tested on: HS 578T breast
HT29 colon = tested on: HT29 colon
IGROV1 ovarian = tested on: IGROV1 ovarian
K-562 leukemia = tested on: K-562 leukemia
KM12 colon = tested on: KM12 colon
LOX IMVI melanoma = tested on: LOX IMVI melanoma
M14 melanoma = tested on: M14 melanoma
MALME-3M melanoma = tested on: MALME-3M melanoma
MCF7 breast = tested on: MCF7 breast
MDA-MB-435 = tested on: MDA-MB-435
MDA-MB-468 breast = tested on: MDA-MB-468 breast
MOLT-4 leukemia = tested on: MOLT-4 leukemia
NCI-H226 lung = tested on: NCI-H226 lung
NCI-H23 lung = tested on: NCI-H23 lung
NCI-H460 lung = tested on: NCI-H460 lung
NCI-H522 lung = tested on: NCI-H522 lung
NCI/ADR-RES ovarian = tested on: NCI/ADR-RES ovarian
OVCAR-3 ovarian = tested on: OVCAR-3 ovarian
OVCAR-4 ovarian = tested on: OVCAR-4 ovarian
OVCAR-5 ovarian = tested on: OVCAR-5 ovarian
OVCAR-8 ovarian = tested on: OVCAR-8 ovarian
PC-3 prostate = tested on: PC-3 prostate
RPMI-8226 leukemia = tested on: RPMI-8226 leukemia
RXF 393 renal = tested on: RXF 393 renal
SF-268 CNS = tested on: SF-268 CNS
SF-295 CNS = tested on: SF-295 CNS
SF-539 CNS = tested on: SF-539 CNS
SK-MEL-28 melanoma = tested on: SK-MEL-28 melanoma
SK-MEL-5 melanoma = tested on: SK-MEL-5 melanoma
SK-OV-3 ovarian = tested on: SK-OV-3 ovarian
SN12C renal = tested on: SN12C renal
SNB-19 CNS = tested on: SNB-19 CNS
SR leukemia = tested on: SR leukemia
SW-620 colon = tested on: SW-620 colon
T-47D breast = tested on: T-47D breast
TK-10 renal = tested on: TK-10 renal
U251 CNS = tested on: U251 CNS
UACC-257 melanoma = tested on: UACC-257 melanoma
UACC-62 melanoma = tested on: UACC-62 melanoma

Structure (SMILES): Cc1nn(-c2ccccc2)c2nc(C)n(CC(=O)N/N=C/c3ccccc3O)c(=O)c12
- GI50 (786-0 renal): 6.16 µM
- TGI (786-0 renal): 31.8 µM
- GI50 (A498 renal): 19.3 µM
- TGI (A498 renal): 83.1 µM
- GI50 (A549 NSCLC): 6.12 µM
- TGI (A549 NSCLC): 21.1 µM
- GI50 (ACHN renal): 2620 nM
- TGI (ACHN renal): 14.7 µM
- GI50 (BT-549 breast): 3.74 µM
- TGI (BT-549 breast): 25.4 µM
- GI50 (CAKI-1 renal): 4.93 µM
- TGI (CAKI-1 renal): 26.2 µM
- GI50 (CCRF-CEM leukemia): 2090 nM
- TGI (CCRF-CEM leukemia): 16.8 µM
- GI50 (COLO 205 colon): 2830 nM
- TGI (COLO 205 colon): 14.9 µM
- GI50 (DU-145 prostate): 6.32 µM
- TGI (DU-145 prostate): > 100 µM
- GI50 (EKVX NSCLC): 2550 nM
- TGI (EKVX NSCLC): 17 µM
- GI50 (HCC-2998 colon): 4.29 µM
- TGI (HCC-2998 colon): 27.6 µM
- GI50 (HCT-116 colon): 4.85 µM
- TGI (HCT-116 colon): 18.9 µM
- GI50 (HCT-15 colon): 2260 nM
- TGI (HCT-15 colon): > 100 µM
- GI50 (HL-60(TB) leukemia): 2130 nM
- TGI (HL-60(TB) leukemia): 7.52 µM
- GI50 (HOP-62 NSCLC): 4.63 µM
- TGI (HOP-62 NSCLC): 21.4 µM
- GI50 (HOP-92 NSCLC): 3.29 µM
- TGI (HOP-92 NSCLC): 20.6 µM
- GI50 (HS 578T breast): 9.4 µM
- TGI (HS 578T breast): 70.9 µM
- GI50 (HT29 colon): 4.91 µM
- TGI (HT29 colon): 20.5 µM
- GI50 (IGROV1 ovarian): 6.36 µM
- TGI (IGROV1 ovarian): 66.3 µM
- GI50 (K-562 leukemia): 3.48 µM
- TGI (K-562 leukemia): > 100 µM
- GI50 (KM12 colon): 4.12 µM
- TGI (KM12 colon): > 100 µM
- GI50 (LOX IMVI melanoma): 1780 nM
- TGI (LOX IMVI melanoma): 14 µM
- GI50 (M14 melanoma): 2890 nM
- TGI (M14 melanoma): 15.6 µM
- GI50 (MALME-3M melanoma): 4.33 µM
- TGI (MALME-3M melanoma): 30 µM
- GI50 (MCF7 breast): 3.62 µM
- TGI (MCF7 breast): 31.1 µM
- GI50 (MDA-MB-435): 8.63 µM
- TGI (MDA-MB-435): > 100 µM
- GI50 (MDA-MB-468 breast): 3.36 µM
- TGI (MDA-MB-468 breast): 19.4 µM
- GI50 (MOLT-4 leukemia): 2590 nM
- TGI (MOLT-4 leukemia): 10.7 µM
- GI50 (NCI-H226 lung): 12.9 µM
- TGI (NCI-H226 lung): 38.9 µM
- GI50 (NCI-H23 lung): 4.62 µM
- TGI (NCI-H23 lung): 22.4 µM
- GI50 (NCI-H460 lung): 3.59 µM
- TGI (NCI-H460 lung): 16.2 µM
- GI50 (NCI-H522 lung): 3.4 µM
- TGI (NCI-H522 lung): 22.2 µM
- GI50 (NCI/ADR-RES ovarian): 3.79 µM
- TGI (NCI/ADR-RES ovarian): 17.9 µM
- GI50 (OVCAR-3 ovarian): 2660 nM
- TGI (OVCAR-3 ovarian): 28 µM
- GI50 (OVCAR-4 ovarian): 3.18 µM
- TGI (OVCAR-4 ovarian): 42.8 µM
- GI50 (OVCAR-5 ovarian): 8.89 µM
- TGI (OVCAR-5 ovarian): 51.4 µM
- GI50 (OVCAR-8 ovarian): 3.86 µM
- TGI (OVCAR-8 ovarian): 21.1 µM
- GI50 (PC-3 prostate): 4.47 µM
- TGI (PC-3 prostate): 29.3 µM
- GI50 (RPMI-8226 leukemia): 5.53 µM
- TGI (RPMI-8226 leukemia): 48.4 µM
- GI50 (RXF 393 renal): 4.92 µM
- TGI (RXF 393 renal): 24.1 µM
- GI50 (SF-268 CNS): 3.31 µM
- TGI (SF-268 CNS): > 100 µM
- GI50 (SF-295 CNS): 4.79 µM
- TGI (SF-295 CNS): 22.6 µM
- GI50 (SF-539 CNS): 4.46 µM
- TGI (SF-539 CNS): 26.9 µM
- GI50 (SK-MEL-28 melanoma): 4.58 µM
- TGI (SK-MEL-28 melanoma): 33.7 µM
- GI50 (SK-MEL-5 melanoma): 3.75 µM
- TGI (SK-MEL-5 melanoma): 19.4 µM
- GI50 (SK-OV-3 ovarian): 6.5 µM
- TGI (SK-OV-3 ovarian): 28.5 µM
- GI50 (SN12C renal): 5.64 µM
- TGI (SN12C renal): 46 µM
- GI50 (SNB-19 CNS): 7.44 µM
- TGI (SNB-19 CNS): 39.2 µM
- GI50 (SR leukemia): 2430 nM
- TGI (SR leukemia): 10.8 µM
- GI50 (SW-620 colon): 4.22 µM
- TGI (SW-620 colon): > 100 µM
- GI50 (T-47D breast): 4.41 µM
- TGI (T-47D breast): 36.9 µM
- GI50 (TK-10 renal): 7.5 µM
- TGI (TK-10 renal): 45.4 µM
- GI50 (U251 CNS): 3.93 µM
- TGI (U251 CNS): 19.6 µM
- GI50 (UACC-257 melanoma): 5.46 µM
- TGI (UACC-257 melanoma): 31.3 µM
- GI50 (UACC-62 melanoma): 3.02 µM
- TGI (UACC-62 melanoma): 12.5 µM
